Laboratory results as given in PMC5893428, “Heligmosomoides polygyrus Venom Allergen-like Protein-4 (HpVAL-4) is a sterol binding protein” (International Journal for Parasitology, 2018).

Target: T1, HpVAL-4 (Heligmosomoides polygyrus, UniProt A0A183GMB4)
T1 construct: mature protein, Arabidopsis chitinase signal peptide for secretion, no tag mentioned; Nicotiana benthamiana leaf apoplast; N-glycosylated
Experiment: radioligand binding, adsorption to Q-Sepharose, scintillation counting

T1 sequence (A0A183GMB4 entry or part of it): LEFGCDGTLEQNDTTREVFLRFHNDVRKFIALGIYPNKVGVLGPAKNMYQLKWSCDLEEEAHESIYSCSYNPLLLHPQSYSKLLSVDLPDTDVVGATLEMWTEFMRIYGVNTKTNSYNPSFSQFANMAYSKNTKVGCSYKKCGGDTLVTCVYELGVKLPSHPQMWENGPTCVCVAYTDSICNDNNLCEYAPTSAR

`CC(C)CCC[C@@H](C)[C@H]1CC[C@H]2[C@@H]3CC=C4C[C@@H](O)CC[C@]4(C)[C@H]3CC[C@]12C` [cholesterol] was tested, and the Kd was 1530 nM.
